Key:
[1] = test system: rabbit pupil; test: Rabbit pupil constriction after single eye drop (Test Example 1); assay type: in vivo, New Zealand rabbit; details: rabbits, Test Example 1 solutions
Procedure: Except for group 5), the eye drop solutions of groups 1) to 12) described above contained an equimolar concentration of pilocarpine. The molar concentration of pilocarpine in the eye drop solution of group 5) was half of the molar concentration of pilocarpine in the solutions of the other 11 groups.
The effects of the eye drop solutions of groups 1) to 12) prepared above on rabbit pupil constriction and irritation were tested separately.
• Species and strain: New Zealand rabbit • Grade: normal • Source: Qinglongshan Animal Breeding Farm, Jiangning District, Nanjing • Production license No.: SCXK (Su) 2016-0008 • Animal age: about 110 days old at the time of administration • Animal body weight: about 2.5-3.5 kg at the time of administration • Animal sex: all male • Feed: rabbit pellet feed • Housing conditions: air-conditioned room, with a temperature of 18-26° C. and a relative humidity of 40%-80%.
• Digital vernier caliper: specification: 0-150 mm; measurement accuracy: 0.01 mm; manufacturer: Guilin Guanglu Measuring Instrument Co., Ltd.
Each rabbit was subjected to eye drop administration in the left eye (using a pipette), with an administration volume of 100 μL.
• Number of animals: for JQ series compounds, 6 rabbits per compound; for compounds 1, 2 and 4, 5 rabbits per compound. • Administration schedule: single administration. Measurement indicators and time points: • for JQ series compounds, the pupil diameter of the left eye of the rabbits was measured at time points of −0.5 h (i.e., half an hour before administration), 5 min, 10 min, 15 min, 0.5 h, 3 h and 4 h relative to administration, with the measurement repeated 3 times for each rabbit at each time point (measurement time points were extended if necessary); • for compounds 1, 2 and 4, the pupil diameter of the left eye of the rabbits was measured at time points of 3 h and 4 h relative to administration, with the measurement repeated 3 times for each rabbit at each time point (measurement time points were extended if necessary).
Percentage change in pupil diameter (%) after administration=(pupil diameter after administration−pupil diameter before administration)/pupil diameter before administration×100%
The measurement result for each rabbit at each time point was represented by the average value of three measurements.

[2] = Determination of salt-forming ratios of pilocarpine salt formulations (HPLC); assay type: physicochemical; details: for salt-forming ratios of the formulations: different conditions
Procedure: The determination of the salt-forming ratios of the pilocarpine salt formulations was performed using high-performance liquid chromatography with the following conditions: chromatographic column: C18 column; sample injection volume: 10 μL; mobile phase: K2HPO4 (adjusted to pH 6.50±0.1 with phosphoric acid)-methanol-acetonitrile (63:2:35); flow rate: 0.7 mL/min; column temperature: 30° C.; detection wavelength: 215 nm; […] determination was performed, and the salt-forming ratios were calculated according to the peak areas of free acid radicals and pilocarpine.
(§1) The samples were separately injected to determine the salt-forming ratios of different compound 1 formulations. Meanwhile, the salt-forming ratios of the compound 1 formulation solutions with different pH values under different conditions were determined using the above stability examination methods.
as §1, with “2” for “1”

[3] = test system: rabbit pupil; test: Miosis effect of 0.915% compound solutions in rabbits (Test Example 4); assay type: in vivo; details: at half of the concentration of the pilocarpine hydrochloride
Procedure: Each rabbit in each group was subjected to single eye drop administration in the left eye, with an administration volume of 100 μL. The pupil and iris diameters of the left eye of the rabbits were measured at time points of −0.5 h (i.e., half an hour before administration), 0.5 h, 3 h, and 4 h relative to administration (observation time points were extended if necessary), with the measurement performed 5 times for each rabbit at each time point. The entire measurement process was completed by the same person.
• Reagents: normal saline (specification: 500 mL: 4.5 g), purchased from Jiangxi Kelun Pharmaceutical Co., Ltd.; • compound 1 and compound 2 (from Nanjing Jiqun Pharmaceutical Technology Co., Ltd.); • 1) a compound 1 solution at a concentration of 0.915% prepared using normal saline; • 2) a compound 2 solution at a concentration of 0.915% prepared using normal saline.
The miosis effects of the 0.915% compound 1 solution and the 0.915% compound 2 solution were determined using the method in Test Example 2, and the determination results are shown in Tables 4-1 and 4-2 below.

[4] = formulation pH 4.8, 40° C./10 d
[5] = formulation pH 4.8, 60° C./10 d
[6] = formulation pH 4.8, Light irradiation/5 d
[7] = formulation pH 4.8, Light irradiation/10 d

Compound: CC[C@@H]1C(=O)OC[C@@H]1Cc1cncn1C [Compound 2]
- pupil constriction (miosis) effect at 3 h after administration [1]: still showed miosis effect
- salt-forming ratios of the formulations [2]: substantially stable
- Salt-forming ratio ([2]; formulation pH 4.3, 0 d): 1.25
- Salt-forming ratio ([2]; formulation pH 4.3, 40° C./5 d): 1.14
- Salt-forming ratio ([2]; formulation pH 4.3, 40° C./10 d): 1.15
- Salt-forming ratio ([2]; formulation pH 4.3, 60° C./5 d): 1.17
- Salt-forming ratio ([2]; formulation pH 4.3, 60° C./10 d): 1.23
- Salt-forming ratio ([2]; formulation pH 4.3, Light irradiation/5 d): 1.12
- Salt-forming ratio ([2]; formulation pH 4.3, Light irradiation/10 d): 1.13
- Salt-forming ratio ([2]; formulation pH 4.5, 0 d): 1.00
- Salt-forming ratio ([2]; formulation pH 4.5, 40° C./5 d): 1.02
- Salt-forming ratio ([2]; formulation pH 4.5, 40° C./10 d): 1.01
- Salt-forming ratio ([2]; formulation pH 4.5, 60° C./5 d): 1.02
- Salt-forming ratio ([2]; formulation pH 4.5, 60° C./10 d): 1.01
- Salt-forming ratio ([2]; formulation pH 4.5, Light irradiation/5 d): 1.01
- Salt-forming ratio ([2]; formulation pH 4.5, Light irradiation/10 d): 1.01
- Salt-forming ratio ([2]; formulation pH 4.8, 0 d): 1.00
- Salt-forming ratio ([2]; formulation pH 4.8, 40° C./5 d): 1.01
- Salt-forming ratio [2, 4]: 1.00
- Salt-forming ratio ([2]; formulation pH 4.8, 60° C./5 d): 0.98
- Salt-forming ratio [2, 5]: 0.96
- Salt-forming ratio [2, 6]: 1.01
- Salt-forming ratio [2, 7]: 1.01
- Salt-forming ratio ([2]; formulation pH 5.0, 0 d): 1.00
- Salt-forming ratio ([2]; formulation pH 5.0, 40° C./5 d): 1.00
- Salt-forming ratio ([2]; formulation pH 5.0, 40° C./10 d): 0.99
- Salt-forming ratio ([2]; formulation pH 5.0, 60° C./5 d): 0.95
- Salt-forming ratio ([2]; formulation pH 5.0, 60° C./10 d): 0.92
- Salt-forming ratio ([2]; formulation pH 5.0, Light irradiation/5 d): 1.00
- Salt-forming ratio ([2]; formulation pH 5.0, Light irradiation/10 d): 1.00
- Salt-forming ratio ([2]; formulation pH 5.5, 0 d): 0.99
- Salt-forming ratio ([2]; formulation pH 5.5, 40° C./5 d): 0.98
- Salt-forming ratio ([2]; formulation pH 5.5, 40° C./10 d): 0.97
- Salt-forming ratio ([2]; formulation pH 5.5, 60° C./5 d): 0.90
- Salt-forming ratio ([2]; formulation pH 5.5, 60° C./10 d): 0.85
- Salt-forming ratio ([2]; formulation pH 5.5, Light irradiation/5 d): 1.00
- Salt-forming ratio ([2]; formulation pH 5.5, Light irradiation/10 d): 1.00
- miosis effect compared to pilocarpine hydrochloride [3]: comparable to the effect of pilocarpine hydrochloride

Compound: CC[C@@H]1C(=O)OC[C@@H]1Cc1cncn1C [Compound 1]
- pupil constriction (miosis) effect at 3 h after administration [1]: still showed miosis effect
- salt-forming ratios of the formulations [2]: substantially stable
- Salt-forming ratio ([2]; formulation pH 3.6, 0 d): 1.19
- Salt-forming ratio ([2]; formulation pH 3.6, 40° C./5 d): 1.08
- Salt-forming ratio ([2]; formulation pH 3.6, 40° C./10 d): 1.09
- Salt-forming ratio ([2]; formulation pH 3.6, 60° C./5 d): 1.15
- Salt-forming ratio ([2]; formulation pH 3.6, 60° C./10 d): 1.24
- Salt-forming ratio ([2]; formulation pH 3.6, Light irradiation/5 d): 1.06
- Salt-forming ratio ([2]; formulation pH 3.6, Light irradiation/10 d): 1.06
- Salt-forming ratio ([2]; formulation pH 4.1, 0 d): 1.03
- Salt-forming ratio ([2]; formulation pH 4.1, 40° C./5 d): 1.06
- Salt-forming ratio ([2]; formulation pH 4.1, 40° C./10 d): 1.06
- Salt-forming ratio ([2]; formulation pH 4.1, 60° C./5 d): 1.09
- Salt-forming ratio ([2]; formulation pH 4.1, 60° C./10 d): 1.10
- Salt-forming ratio ([2]; formulation pH 4.1, Light irradiation/5 d): 1.04
- Salt-forming ratio ([2]; formulation pH 4.1, Light irradiation/10 d): 1.04
- Salt-forming ratio ([2]; formulation pH 4.7, 0 d): 1.03
- Salt-forming ratio ([2]; formulation pH 4.7, 40° C./5 d): 1.04
- Salt-forming ratio ([2]; formulation pH 4.7, 40° C./10 d): 1.02
- Salt-forming ratio ([2]; formulation pH 4.7, 60° C./5 d): 1.02
- Salt-forming ratio ([2]; formulation pH 4.7, 60° C./10 d): 1.00
- Salt-forming ratio ([2]; formulation pH 4.7, Light irradiation/5 d): 1.03
- Salt-forming ratio ([2]; formulation pH 4.7, Light irradiation/10 d): 1.03
- Salt-forming ratio ([2]; formulation pH 4.8, 0 d): 1.02
- Salt-forming ratio ([2]; formulation pH 4.8, 40° C./5 d): 1.04
- Salt-forming ratio [2, 4]: 1.02
- Salt-forming ratio ([2]; formulation pH 4.8, 60° C./5 d): 0.99
- Salt-forming ratio [2, 5]: 0.97
- Salt-forming ratio [2, 6]: 1.03
- Salt-forming ratio [2, 7]: 1.02
- Salt-forming ratio ([2]; formulation pH 5.1, 0 d): 1.02
- Salt-forming ratio ([2]; formulation pH 5.1, 40° C./5 d): 1.03
- Salt-forming ratio ([2]; formulation pH 5.1, 40° C./10 d): 1.01
- Salt-forming ratio ([2]; formulation pH 5.1, 60° C./5 d): 0.97
- Salt-forming ratio ([2]; formulation pH 5.1, 60° C./10 d): 0.92
- Salt-forming ratio ([2]; formulation pH 5.1, Light irradiation/5 d): 1.03
- Salt-forming ratio ([2]; formulation pH 5.1, Light irradiation/10 d): 1.02
- Salt-forming ratio ([2]; formulation pH 5.6, 0 d): 1.02
- Salt-forming ratio ([2]; formulation pH 5.6, 40° C./5 d): 1.01
- Salt-forming ratio ([2]; formulation pH 5.6, 40° C./10 d): 0.98
- Salt-forming ratio ([2]; formulation pH 5.6, 60° C./5 d): 0.91
- Salt-forming ratio ([2]; formulation pH 5.6, 60° C./10 d): 0.85
- Salt-forming ratio ([2]; formulation pH 5.6, Light irradiation/5 d): 1.02
- Salt-forming ratio ([2]; formulation pH 5.6, Light irradiation/10 d): 1.01
- miosis effect compared to pilocarpine hydrochloride [3]: comparable to the effect of pilocarpine hydrochloride

Reference: patent publication US20250154135A1, “M-CHOLINE RECEPTOR AGONIST COMPOUND, PREPARATION METHOD THEREFOR AND USE THEREOF” (NANJING GRITPHARMA CO., LTD., priority 2022, published 2025)
